Holding throughout (assay type): physicochemical
Data set [1] is described as follows: Storage stability of solid forms at room temperature. As for the experimental part:
In detail, rimonabant base may be isolated in a new solid state crystalline hydrate form, designated as the Form III. Form III is characterized by the XRPD spectrum having characteristic peaks at angles of around 9.29°, 10.49°, 13.52°, 15.25°, 17.78° using a 2-theta scale. […] The hydrated Form III is stable during storage at room temperature.
In general, a mixture of the hydrated Form III and the methanol solvate Form IV may be obtained after a crystallization of rimonabant base from a methanol solvent containing water. Mixtures of the hydrated Form III and the methanol solvate Form IV may also be obtained by crystallizing rimonabant base and rimonabant hydrochloride from methanol/water mixtures. A longer crystallization time, a slower cooling, and a lower solute concentration each generally promote the crystallization of Form III over Form IV. […] The methanolate Form IV is thus a thermodynamically unstable form. A mixture of Forms III and Form IV is also useful for making particulated amorphous rimonabant base.
Rimonabant base may also be isolated in a propanol solvate form, designated as the Form VI. Form VI is characterized by the following XRPD having characteristic peaks at angles of around 6.73°, 8.36°, 9.92°, 11.98°, 13.45°, 14.34°, 18.14°, 21.43°, 21.88°, 24.13°, 31.03° and 32.28° using a 2-theta scale. […] Instead, the known Form I of the crystalline anhydrous rimonabant is provided after a crystallization from 2-propanol. Form VI may be obtained by crystallizing rimonabant base from a 1-propanol solvent. For example, the crystallization may be induced by a slow evaporation of the 1-propanol solvent.

A short description of data set [2]: Thermal desolvation of hydrates/solvates by heating/drying. To be noted: among Form III, IV, V and VI; temperature higher than 80° C. preferable. The text has this:
The conversion of any of the above hydrates and/or solvates, as well as mixtures thereof, to the particulated amorphous rimonabant base may be performed by a heating (drying) thereof at an enhanced temperature (e.g., higher than room temperature), preferably at diminished pressure (e.g., lower than atmospheric pressure). The transformation into the particulated amorphous rimonabant base may be accomplished by the fact that the crystalline lattice of any of the solvates and/or hydrates is thermally unstable and may collapse at an enhanced temperature without any further recrystallization into the most thermodynamically stable form of rimonabant, the Form I. Accordingly the Form I cannot apparently be converted into the amorphous form by such a simple transformation.
The fastest loss of the bound solvent in combination with amorphization occurs for the ethanol solvate, where the heating/drying of the product takes place at 60° C. or more, generally 60-80° C. Accordingly, the ethanol solvate can be used to obtain powderized amorphous rimonabant base. For other hydrates/solvates, e.g., for the methanolate Form IV, propanolate Form VI, hydrate Form III or hydrate Form V, a temperature higher than 80° C. is preferable to facilitate the conversion into the particulate amorphous rimonabant base. […]

The next data set in a line: Solubility in water. To be noted: compared with the known Form I. The source says:
In general, only the hydrated Form III rimonabant is obtainable by a process employing water as the solvent. The other known solvent-free forms I and II are made by a process employing solely an organic solvent. The Form III is thus an advantageous form from technological and ecological reasons.

Data set [3] can be described thus: Stability of the salt towards solvents (crystallization or stirring of a suspension). The text has this: A known rimonabant solvate form, a rimonabant ethanol solvate, is disclosed in U.S. Pat. No. 5,624,941 (Example 212). According to U.S. Pat. No. 5,624,941, this ethanol solvate may be made by crystallizing rimonabant from ethanol. It has now been discovered that the same rimonabant ethanol solvate may be obtained by a novel solvent mediated transformation, such as by suspending and stirring the anhydrous rimonabant base in a liquid comprising ethanol. For example, the liquid may be an ethanol/water mixture, e.g. having a 3:1 (V/V) ratio. Also the crystallization of rimonabant hydrochloride from an ethanol/water mixture may provide for the known ethanolate of rimonabant base, which is another process not disclosed in the prior art and indicates the instability of rimonabant hydrochloride towards solvents comprising ethanol. As described more fully below, this ethanol solvate can be used to form amorphous rimonabant.
In this regard, the rimonabant salt can precipitate as the base, either by addition of a neutralizing base or spontaneously, and/or can precipitate as the salt and convert to the base by a solvent mediated transformation. Accordingly, stirring a suspension of rimonabant hydrochloride in a solvent comprising water (e.g. water/methanol=30:1 V/V) at ambient temperature provides for solvent-mediated polymorphic transformation yielding the Form III of rimonabant base. […]

Molecules are shown by their SMILES. Structures can show the parent of a compound that is named as a salt.

The source of these data is patent publication US20080182877A1, “Rimonabant forms and methods of making the same” (priority 2007, published 2008).

With `Cc1c(C(=O)NN2CCCCC2)nn(-c2ccc(Cl)cc2Cl)c1-c1ccc(Cl)cc1` [Form VI, Rimonabant], the stability during storage result in data set [1] is reported as “sufficiently stable”. Besides, the “relative stability to heating/drying (desolvation)” value in data set [2] is recorded as “most stable”.

Regarding `Cc1c(C(=O)NN2CCCCC2)nn(-c2ccc(Cl)cc2Cl)c1-c1ccc(Cl)cc1` [Form III, Rimonabant], the stability during storage entry in data set [1] is recorded as “stable”. For the same compound, the solubility in water entry in “Solubility in water” is “same solubility in water as the known Form I”.

Take `Cc1c(C(=O)NN2CCCCC2)nn(-c2ccc(Cl)cc2Cl)c1-c1ccc(Cl)cc1` [Form IV, Rimonabant]: the conversion during storage result in data set [1] (in the presence of air humidity) was “may be converted into Form III”.

`Cc1c(C(=O)NN2CCCCC2)nn(-c2ccc(Cl)cc2Cl)c1-c1ccc(Cl)cc1` [rimonabant hydrochloride]: the “stability towards solvents comprising ethanol” value in data set [3] (crystallization from an ethanol/water mixture gives the ethanolate of the base) is reported as “instability”. Moreover, in data set [3] (e.g. water/methanol 30:1 V/V, ambient temperature, yields Form III of the base), the “stability towards solvents comprising water” value is on record as “not stable”.
